Measured values: paper PMC8459971, “Evaluation of the hepatotoxicity of the novel GPR40 (FFAR1) agonist CPL207280 in the rat and monkey” (PLoS ONE, 2021)
Where two headings read alike, the source gives them in different places.

Key:
HepaRG spheroids = assay: HepaRG 3D spheroids, cell and mitochondrial health markers, 14 days; conditions: for AC50: Homo sapiens, HepaRG
Procedure: Hepatic spheroids were formed by seeding HepaRG™ cells into round-bottom ultra-low adhesion 96-well spheroid plates (Corning®) in 3D liver media with 0.5% DMSO, 100 U/mL penicillin, and 100 mg/L streptomycin. Cells were incubated at 37°C and 5% CO2 until spheroid formation and then compound-treated. The test compound was diluted in the vehicle, and serial dilutions were made in a 0.5% vehicle in HepaRG™ induction media. […] L-buthionine sulfoximine was used as positive control for GSH content, whereas rotenone was simultaneously used as a positive control for mitochondrial dysfunction and ATP content. At the end of the incubation period, the cells were loaded with the relevant dye for each cell health marker: DNA structure–Hoescht, GSH content–mBCL, ROS formation–DHE, mitochondrial dysfunction–MitoTracker, and cellular ATP content–CellTiter-Glo®, Promega. The plate was then scanned using an automated confocal fluorescent cellular imager, ArrayScan® XTI (Thermo Scientific Cellomics) at 37°C and 5% CO2. Further, the cellular ATP content was measured using CellTiter-Glo® (Promega, USA).

[1] = Repeat-dose study in healthy Cynomolgus monkeys, safety (14 and 56 days)

SMILES: CC#C[C@@H](CC(=O)O)c1ccc(OCC(C)=C(C)C)cc1 [CPL207280]
- DNA structure Mean Plotted Value (HepaRG spheroids; CONC 0.412 uM, TIMEPOINT 336): 1.12
- Glutathione content Mean Plotted Value (HepaRG spheroids; CONC 0.412 uM, TIMEPOINT 336): 1.09
- Mitochondrial mass Mean Plotted Value (HepaRG spheroids; CONC 0.412 uM, TIMEPOINT 336): 1
- Mitochondrial membrane potential Mean Plotted Value (HepaRG spheroids; CONC 0.412 uM, TIMEPOINT 336): 0.994
- Oxidative stress Mean Plotted Value (HepaRG spheroids; CONC 0.412 uM, TIMEPOINT 336): 1.02
- Spheroid count Mean Plotted Value (HepaRG spheroids; CONC 0.412 uM, TIMEPOINT 336): 1
- Spheroid size Mean Plotted Value (HepaRG spheroids; CONC 0.412 uM, TIMEPOINT 336): 0.942
- Cellular ATP Mean Plotted Value (HepaRG spheroids; CONC 3.7 uM, TIMEPOINT 336): 0.907
- DNA structure Mean Plotted Value (HepaRG spheroids; CONC 3.7 uM, TIMEPOINT 336): 0.692
- Glutathione content Mean Plotted Value (HepaRG spheroids; CONC 3.7 uM, TIMEPOINT 336): 0.924
- Mitochondrial mass Mean Plotted Value (HepaRG spheroids; CONC 3.7 uM, TIMEPOINT 336): 0.944
- Mitochondrial membrane potential Mean Plotted Value (HepaRG spheroids; CONC 3.7 uM, TIMEPOINT 336): 0.773
- Oxidative stress Mean Plotted Value (HepaRG spheroids; CONC 3.7 uM, TIMEPOINT 336): 1.02
- Spheroid count Mean Plotted Value (HepaRG spheroids; CONC 3.7 uM, TIMEPOINT 336): 1
- Spheroid size Mean Plotted Value (HepaRG spheroids; CONC 3.7 uM, TIMEPOINT 336): 0.935
- Cellular ATP Mean Plotted Value (HepaRG spheroids; CONC 33.3 uM, TIMEPOINT 336): 0.845
- DNA structure Mean Plotted Value (HepaRG spheroids; CONC 33.3 uM, TIMEPOINT 336): 0.889
- Glutathione content Mean Plotted Value (HepaRG spheroids; CONC 33.3 uM, TIMEPOINT 336): 0.907
- Mitochondrial mass Mean Plotted Value (HepaRG spheroids; CONC 33.3 uM, TIMEPOINT 336): 0.989
- Mitochondrial membrane potential Mean Plotted Value (HepaRG spheroids; CONC 33.3 uM, TIMEPOINT 336): 0.908
- Oxidative stress Mean Plotted Value (HepaRG spheroids; CONC 33.3 uM, TIMEPOINT 336): 1.13
- Spheroid count Mean Plotted Value (HepaRG spheroids; CONC 33.3 uM, TIMEPOINT 336): 1
- Spheroid size Mean Plotted Value (HepaRG spheroids; CONC 33.3 uM, TIMEPOINT 336): 0.953
- Cellular ATP Mean Plotted Value (HepaRG spheroids; CONC 100 uM, TIMEPOINT 336): 0.491
- DNA structure Mean Plotted Value (HepaRG spheroids; CONC 100 uM, TIMEPOINT 336): 0.692
- Glutathione content Mean Plotted Value (HepaRG spheroids; CONC 100 uM, TIMEPOINT 336): 0.767
- Mitochondrial mass Mean Plotted Value (HepaRG spheroids; CONC 100 uM, TIMEPOINT 336): 0.865
- Mitochondrial membrane potential Mean Plotted Value (HepaRG spheroids; CONC 100 uM, TIMEPOINT 336): 0.94
- Oxidative stress Mean Plotted Value (HepaRG spheroids; CONC 100 uM, TIMEPOINT 336): 1.13
- Spheroid count Mean Plotted Value (HepaRG spheroids; CONC 100 uM, TIMEPOINT 336): 1
- Spheroid size Mean Plotted Value (HepaRG spheroids; CONC 100 uM, TIMEPOINT 336): 0.861
- Cellular ATP MEC (HepaRG spheroids; HepaRG spheroid, TIMEPOINT 336): 24.8 (NS) uM
- Cellular ATP MR (% @ concentration) (HepaRG spheroids; HepaRG spheroid, TIMEPOINT 336, at the concentration (uM) given): 48%
- Cellular ATP MR (HepaRG spheroids; HepaRG spheroid, TIMEPOINT 336, plotted value at the concentration given): 0.491
- AC50 (HepaRG spheroids; 336 h, read-out: Estimated AC50 (95% CI), Cellular ATP): > 100 µM
- AC50 (HepaRG spheroids; 336 h, read-out: Estimated AC50 (95% CI), DNA structure): > 100 µM
- AC50 (HepaRG spheroids; 336 h, read-out: Estimated AC50 (95% CI), Glutathione content): > 100 µM
- AC50 (HepaRG spheroids; 336 h, read-out: Estimated AC50 (95% CI), Mitochondrial mass): > 100 µM
- AC50 (HepaRG spheroids; 336 h, read-out: Estimated AC50 (95% CI), Mitochondrial membrane potential): > 100 µM
- AC50 (HepaRG spheroids; 336 h, read-out: Estimated AC50 (95% CI), Oxidative stress): > 100 µM
- AC50 (HepaRG spheroids; 336 h, read-out: Estimated AC50 (95% CI), Spheroid count): > 100 µM
- AC50 (HepaRG spheroids; 336 h, read-out: Estimated AC50 (95% CI), Spheroid size): > 100 µM
- AC50 (HepaRG spheroids; read-out: DNA structure AC50): > 100 µM
- AC50 (HepaRG spheroids; read-out: Glutathione content AC50): > 100 µM
- AC50 (HepaRG spheroids; read-out: Mitochondrial mass AC50): > 100 µM
- AC50 (HepaRG spheroids; read-out: Mitochondrial membrane potential AC50): > 100 µM
- AC50 (HepaRG spheroids; read-out: Oxidative stress AC50): > 100 µM
- AC50 (HepaRG spheroids; read-out: Spheroid count AC50): > 100 µM
- AC50 (HepaRG spheroids; read-out: Spheroid size AC50): > 100 µM
- Mitochondria Injury (HepaRG spheroids; summary comparison CPL207280 vs TAK-875): <
- liver safety parameters ([1]; 50–250 mg/kg/day, 14 and 56 days): No alteration of liver safety parameters
- hepatocyte hypertrophy and liver mass ([1]; after the 14 and 56-day treatment): neither hypertrophy nor increased liver mass was observed
